Measured values reported in the OligoGym collection.
HELM strings list units from the 5' end as sugar, base in round brackets, then linkage (d deoxyribose, r ribose, m 2'-O-methyl, p phosphodiester). Strings are as the collection lists them; they lack the last nucleoside at the 3' end of the tested compound. [moe] = 2'-O-(2-methoxyethyl) (MOE); [sp] = phosphorothioate linkage; [m5C] = 5-methylcytosine

target: SCN2A; experiment: mouse, dose not given; conditions: ASO

“RNA1{[moe]([m5C])[sp].[moe](A)p.[moe](G)p.[moe]([m5C])p.[moe](A)p.[moe](T)p.d(A)[sp].d(T)[sp].d(T)[sp].d([m5C])[sp].d(T)[sp].d(A)[sp].d(A)[sp].d([m5C])[sp].d(A)[sp].d(T)[sp].[moe](G)p.[moe](G)[sp].[moe](T)}$$$$ (last 3' nucleoside missing)” and “RNA1{[moe]([m5C])[sp].[moe](A)p.[moe](G)p.[moe]([m5C])p.[moe](A)p.[moe](T)p.d(G)[sp].d(T)[sp].d(T)[sp].d(T)[sp].d(A)[sp].d(T)[sp].d([m5C])[sp].d(T)[sp].d(T)[sp].d(A)[sp].[moe](G)p.[moe](T)[sp].[moe](T)}$$$$ (last 3' nucleoside missing)” are the same in 3 h FOB score: 0 score 0-7 for the first, 0 score 0-7 for the second.

“RNA1{[moe]([m5C])[sp].[moe](A)p.[moe](G)p.[moe]([m5C])p.d(A)[sp].d(T)[sp].d(A)[sp].d(T)[sp].d(T)[sp].d([m5C])[sp].d(T)[sp].d(A)[sp].d(A)[sp].d([m5C])[sp].[moe](A)p.[moe](T)p.[moe](G)p.[moe](G)[sp].[moe](T)}$$$$ (last 3' nucleoside missing)” and “RNA1{[moe]([m5C])[sp].[moe](A)p.[moe](G)p.[moe]([m5C])p.d(A)[sp].d(T)[sp].d(G)[sp].d(T)[sp].d(T)[sp].d(T)[sp].d(A)[sp].d(T)[sp].d([m5C])[sp].d(T)[sp].[moe](T)p.[moe](A)p.[moe](G)p.[moe](T)[sp].[moe](T)}$$$$ (last 3' nucleoside missing)” are the same in 3 h FOB score: 0 score 0-7 for the first, 0 score 0-7 for the second.

“RNA1{[moe]([m5C])[sp].[moe](A)p.[moe](T)p.[moe](A)p.[moe](A)p.[moe](T)p.d([m5C])[sp].d([m5C])[sp].d([m5C])[sp].d(A)[sp].d(T)[sp].d(T)[sp].d(A)[sp].d(T)[sp].d(A)[sp].d([m5C])[sp].[moe](A)p.[moe](A)[sp].[moe](A)}$$$$ (last 3' nucleoside missing)” and “RNA1{[moe]([m5C])[sp].[moe](A)p.[moe](T)p.[moe](A)p.[moe](A)p.d(T)[sp].d([m5C])[sp].d([m5C])[sp].d([m5C])[sp].d(A)[sp].d(T)[sp].d(T)[sp].d(A)[sp].d(T)[sp].d(A)[sp].[moe]([m5C])p.[moe](A)p.[moe](A)[sp].[moe](A)}$$$$ (last 3' nucleoside missing)” are the same in 3 h FOB score: 0 score 0-7 for the first, 0 score 0-7 for the second.

Compared with “RNA1{[moe]([m5C])[sp].[moe](A)p.[moe](T)p.[moe](A)p.[moe](T)p.d(T)[sp].d(T)[sp].d(T)[sp].d(T)[sp].d([m5C])[sp].d(T)[sp].d(A)[sp].d([m5C])[sp].d(A)[sp].d([m5C])[sp].[moe](T)p.[moe](G)p.[moe]([m5C])[sp].[moe](T)}$$$$ (last 3' nucleoside missing)”, “RNA1{[moe]([m5C])[sp].[moe](A)p.[moe](T)p.[moe](A)p.d(A)[sp].d(T)[sp].d([m5C])[sp].d([m5C])[sp].d([m5C])[sp].d(A)[sp].d(T)[sp].d(T)[sp].d(A)[sp].d(T)[sp].[moe](A)p.[moe]([m5C])p.[moe](A)p.[moe](A)[sp].[moe](A)}$$$$ (last 3' nucleoside missing)” is lower in 3 h FOB score: 2 score 0-7 for the first, 0 score 0-7 for the second.

Going from “RNA1{[moe]([m5C])[sp].[moe](A)p.[moe](T)p.[moe](A)p.d(T)[sp].d(T)[sp].d(T)[sp].d(T)[sp].d(T)[sp].d([m5C])[sp].d(T)[sp].d(A)[sp].d([m5C])[sp].d(A)[sp].[moe]([m5C])p.[moe](T)p.[moe](G)p.[moe]([m5C])[sp].[moe](T)}$$$$ (last 3' nucleoside missing)” to “RNA1{[moe]([m5C])[sp].[moe](A)p.[moe](T)p.[moe](G)[sp].d(T)[sp].d(A)[sp].d(A)[sp].d([m5C])[sp].d([m5C])[sp].d(T)[sp].d(T)[sp].d(T)[sp].[moe](A)p.[moe](T)p.[moe](A)p.[moe]([m5C])[sp].[moe](A)}$$$$ (last 3' nucleoside missing)”, the 3 h FOB score falls from 2 score 0-7 to 0 score 0-7.

“RNA1{[moe]([m5C])[sp].[moe](A)p.[moe](T)p.[moe](G)p.[moe](T)[sp].d(A)[sp].d(A)[sp].d([m5C])[sp].d([m5C])[sp].d(T)[sp].d(T)[sp].d(T)[sp].d(A)[sp].[moe](T)p.[moe](A)p.[moe]([m5C])[sp].[moe](A)}$$$$ (last 3' nucleoside missing)” and “RNA1{[moe]([m5C])[sp].[moe](A)p.[moe](T)p.[moe](G)p.[moe](T)p.[moe](A)[sp].d(A)[sp].d([m5C])[sp].d([m5C])[sp].d(T)[sp].d(T)[sp].d(T)[sp].d(A)[sp].d(T)[sp].[moe](A)p.[moe]([m5C])[sp].[moe](A)}$$$$ (last 3' nucleoside missing)” are the same in 3 h FOB score: 0 score 0-7 for the first, 0 score 0-7 for the second.

“RNA1{[moe]([m5C])[sp].[moe](A)p.[moe](T)p.[moe](G)p.[moe](T)p.[moe](A)p.d(A)[sp].d(T)[sp].d([m5C])[sp].d(A)[sp].d([m5C])[sp].d(T)[sp].d(T)[sp].d(T)[sp].d([m5C])[sp].d(A)[sp].[moe](T)p.[moe]([m5C])[sp].[moe]([m5C])}$$$$ (last 3' nucleoside missing)” and “RNA1{[moe]([m5C])[sp].[moe](A)p.[moe](T)p.[moe](G)p.[moe](T)p.[moe](A)p.d(A)[sp].d([m5C])[sp].d([m5C])[sp].d(T)[sp].d(T)[sp].d(T)[sp].d(A)[sp].d(T)[sp].d(A)[sp].d([m5C])[sp].[moe](A)p.[moe](T)[sp].[moe](T)}$$$$ (last 3' nucleoside missing)” are the same in 3 h FOB score: 0 score 0-7 for the first, 0 score 0-7 for the second.

“RNA1{[moe]([m5C])[sp].[moe](A)p.[moe](T)p.[moe](G)p.[moe](T)p.d(A)[sp].d(A)[sp].d(T)[sp].d([m5C])[sp].d(A)[sp].d([m5C])[sp].d(T)[sp].d(T)[sp].d(T)[sp].d([m5C])[sp].[moe](A)p.[moe](T)p.[moe]([m5C])[sp].[moe]([m5C])}$$$$ (last 3' nucleoside missing)” and “RNA1{[moe]([m5C])[sp].[moe](A)p.[moe](T)p.[moe](G)p.[moe](T)p.d(A)[sp].d(A)[sp].d([m5C])[sp].d([m5C])[sp].d(T)[sp].d(T)[sp].d(T)[sp].d(A)[sp].d(T)[sp].d(A)[sp].[moe]([m5C])p.[moe](A)p.[moe](T)[sp].[moe](T)}$$$$ (last 3' nucleoside missing)” are the same in 3 h FOB score: 0 score 0-7 for the first, 0 score 0-7 for the second.

“RNA1{[moe]([m5C])[sp].[moe](A)p.[moe](T)p.[moe](G)p.[moe]([m5C])p.[moe](A)p.d(T)[sp].d(A)[sp].d(A)[sp].d(T)[sp].d([m5C])[sp].d([m5C])[sp].d([m5C])[sp].d(A)[sp].d(T)[sp].d(T)[sp].[moe](A)p.[moe](T)[sp].[moe](A)}$$$$ (last 3' nucleoside missing)” and “RNA1{[moe]([m5C])[sp].[moe](A)p.[moe](T)p.[moe](G)p.[moe]([m5C])p.d(A)[sp].d(T)[sp].d(A)[sp].d(A)[sp].d(T)[sp].d([m5C])[sp].d([m5C])[sp].d([m5C])[sp].d(A)[sp].d(T)[sp].[moe](T)p.[moe](A)p.[moe](T)[sp].[moe](A)}$$$$ (last 3' nucleoside missing)” are the same in 3 h FOB score: 0 score 0-7 for the first, 0 score 0-7 for the second.

“RNA1{[moe]([m5C])[sp].[moe](A)p.[moe](T)p.[moe](G)p.d(T)[sp].d(A)[sp].d(A)[sp].d(T)[sp].d([m5C])[sp].d(A)[sp].d([m5C])[sp].d(T)[sp].d(T)[sp].d(T)[sp].[moe]([m5C])p.[moe](A)p.[moe](T)p.[moe]([m5C])[sp].[moe]([m5C])}$$$$ (last 3' nucleoside missing)” and “RNA1{[moe]([m5C])[sp].[moe](A)p.[moe](T)p.[moe](G)p.d(T)[sp].d(A)[sp].d(A)[sp].d([m5C])[sp].d([m5C])[sp].d(T)[sp].d(T)[sp].d(T)[sp].d(A)[sp].d(T)[sp].[moe](A)p.[moe]([m5C])p.[moe](A)p.[moe](T)[sp].[moe](T)}$$$$ (last 3' nucleoside missing)” are the same in 3 h FOB score: 0 score 0-7 for the first, 0 score 0-7 for the second.

“RNA1{[moe]([m5C])[sp].[moe](A)p.[moe](T)p.[moe](G)p.d([m5C])[sp].d(A)[sp].d(T)[sp].d(A)[sp].d(A)[sp].d(T)[sp].d([m5C])[sp].d([m5C])[sp].d([m5C])[sp].d(A)[sp].[moe](T)p.[moe](T)p.[moe](A)p.[moe](T)[sp].[moe](A)}$$$$ (last 3' nucleoside missing)” and “RNA1{[moe]([m5C])[sp].[moe](A)p.[moe](T)p.[moe](T)p.[moe](T)p.[moe]([m5C])p.d(T)[sp].d(A)[sp].d(T)[sp].d(A)[sp].d(A)[sp].d([m5C])[sp].d(T)[sp].d([m5C])[sp].d(A)[sp].d(G)[sp].[moe]([m5C])p.[moe](A)[sp].[moe](A)}$$$$ (last 3' nucleoside missing)” are the same in 3 h FOB score: 0 score 0-7 for the first, 0 score 0-7 for the second.

“RNA1{[moe]([m5C])[sp].[moe](A)p.[moe](T)p.[moe](T)p.[moe](T)p.d([m5C])[sp].d(T)[sp].d(A)[sp].d(T)[sp].d(A)[sp].d(A)[sp].d([m5C])[sp].d(T)[sp].d([m5C])[sp].d(A)[sp].[moe](G)p.[moe]([m5C])p.[moe](A)[sp].[moe](A)}$$$$ (last 3' nucleoside missing)” and “RNA1{[moe]([m5C])[sp].[moe](A)p.[moe](T)p.[moe](T)p.d(T)[sp].d([m5C])[sp].d(T)[sp].d(A)[sp].d(T)[sp].d(A)[sp].d(A)[sp].d([m5C])[sp].d(T)[sp].d([m5C])[sp].[moe](A)p.[moe](G)p.[moe]([m5C])p.[moe](A)[sp].[moe](A)}$$$$ (last 3' nucleoside missing)” are the same in 3 h FOB score: 0 score 0-7 for the first, 0 score 0-7 for the second.

First: RNA1{[moe]([m5C])[sp].[moe](A)p.[moe]([m5C])p.[moe](G)p.[moe](A)p.[moe]([m5C])p.d(A)[sp].d(T)[sp].d(A)[sp].d(T)[sp].d(T)[sp].d(T)[sp].d(T)[sp].d(T)[sp].d([m5C])[sp].d(T)[sp].[moe](A)p.[moe]([m5C])[sp].[moe](A)}$$$$ (last 3' nucleoside missing)
Second: RNA1{[moe]([m5C])[sp].[moe](A)p.[moe]([m5C])p.[moe](G)p.[moe](A)p.d([m5C])[sp].d(A)[sp].d(T)[sp].d(A)[sp].d(T)[sp].d(T)[sp].d(T)[sp].d(T)[sp].d(T)[sp].d([m5C])[sp].[moe](T)p.[moe](A)p.[moe]([m5C])[sp].[moe](A)}$$$$ (last 3' nucleoside missing)
The 3 h FOB score of the first is higher: 0.5 score 0-7 for the first, 0 score 0-7 for the second.
